Series [1] can be described thus: singlet oxygen efficiency test, reference rose bengal. Format: physicochemical.
Series [2] can be described thus: absorption spectrum (maximum absorption wavelength, molar extinction coefficient). In kind it is physicochemical.

`COCCOCCOCCOCCOC(=O)C1CCC(CNc2c(O)c3c(=O)cc(OC)c4c5c(OC)cc(=O)c6c(NCC7CCC(C(=O)OCCOCCOCCOCCOC)CC7)c(OC)c7c(c(c2C=C(C)C7)c34)c65)CC1` (stereo not drawn) [HC-13b-PEG4] gave a singlet oxygen yield in series [1] of 32%. Further, in series [2], the maximum absorption wavelength is reported as 624 nm and the molar extinction coefficient was 30,000 M^−1cm^−1.

`COc1c(O)c2c(=O)cc(OC)c3c4c(OC)cc(=O)c5c(NCC6CCC(C(=O)O)CC6)c(NCC6CCC(C(=O)O)CC6)c6c(c(c1C(C(C)=O)C(C)=C6)c23)c54` (stereo not drawn) [HB-13a] gave a singlet oxygen yield in series [1] of 28%. Also, in series [2], the maximum absorption wavelength stood at 621 nm and the molar extinction coefficient is on record as 28,500 M^−1cm^−1.

Compound `COc1c(NCc2cccc[n+]2C)c2c(=O)cc(OC)c3c4c(OC)cc(=O)c5c(O)c(NCc6cccc[n+]6C)c6c(c(c1C(C(C)=O)C(C)=C6)c23)c54` (stereo not drawn) [HB-38b-N^+] gave a singlet oxygen yield in series [1] of 20%. In series [2], the maximum absorption wavelength is given as 620 nm and the molar extinction coefficient is given as 21,000 M^−1cm^−1.

In series [1], `COc1c(NCCCC(=O)O)c2c(=O)cc(OC)c3c4c(OC)cc(=O)c5c(O)c(NCCCC(=O)O)c6c(c(c1C(C(C)=O)C(C)=C6)c23)c54` (stereo not drawn) [HB-8b] returned a singlet oxygen yield of 26%. In series [2], the maximum absorption wavelength came to 618 nm and the molar extinction coefficient is given as 28,500 M^−1cm^−1.

Turning to `COc1c2c3c4c(c(NCCC5CCC(O)CC5)c(=O)c5c(NCCC6CCC(O)CC6)cc(OC)c(c6c(OC)cc(O)c(c1=O)c63)c54)C=C(C)C2C(C)=O` (stereo not drawn) [HB-18c], the singlet oxygen yield in series [1] was 23%. Further, in series [2], the maximum absorption wavelength amounted to 624 nm and the molar extinction coefficient was 23,500 M^−1cm^−1.

Regarding `COCCOCCOCCOCCOCCOCCOCCOCCOCCOCCOCCOCCOCCC(=O)OC1CCC(Nc2c3c4c5c(c(OC)c(=O)c6c(O)cc(OC)c(c7c(OC)cc(NC8CCC(OC(=O)CCOCCOCCOCCOCCOCCOCCOCCOCCOCCOCCOCCOCCOC)CC8)c(c2=O)c74)c65)C(C(C)=O)C(C)=C3)CC1` (stereo not drawn) [HB-17c-PEG12], in series [1], the singlet oxygen yield is 38%. Moreover, in series [2], the maximum absorption wavelength was 632 nm and the molar extinction coefficient is 33,500 M^−1cm^−1.

For `COc1c2c3c4c(c(NC(CC(=O)O)C(=O)O)c(=O)c5c(NC(CC(=O)O)C(=O)O)cc(OC)c(c6c(OC)cc(O)c(c1=O)c63)c54)C=C(C)C2C(C)=O` (stereo not drawn) [HB-27c], in series [1], the singlet oxygen yield is reported as 21%. For the same compound, in series [2], the maximum absorption wavelength is on record as 625 nm and the molar extinction coefficient was 21,500 M^−1cm^−1.

In series [1], `COc1c2c3c4c(c(NC5CCCCC5C(=O)O)c(=O)c5c(O)cc(OC)c(c6c(OC)cc(NC7CCCCC7C(=O)O)c(c1=O)c63)c54)C=C(C)C2C(C)=O` (stereo not drawn) [HB-16d] returned a singlet oxygen yield of 26%. In series [2], the maximum absorption wavelength came to 625 nm and the molar extinction coefficient is 26,500 M^−1cm^−1.

For the compound `COc1c2c3c4c(c(NCC(=O)O)c(=O)c5c(NCC(=O)O)cc(OC)c(c6c(OC)cc(O)c(c1=O)c63)c54)C=C(C)C2` [HC-7c], the singlet oxygen yield in series [1] is on record as 27%. In series [2], the maximum absorption wavelength was found to be 630 nm and the molar extinction coefficient is reported as 29,500 M^−1cm^−1.

`COCCOCCOCCOCCOCCOCCOCCOCCOCCOCCOCCOCCOC(=O)CCCNc1c2c3c4c(c(OC)c(=O)c5c(O)cc(OC)c(c6c(OC)cc(NCCCC(=O)OCCOCCOCCOCCOCCOCCOCCOCCOCCOCCOCCOCCOC)c(c1=O)c63)c54)C(C(C)=O)C(C)=C2` (stereo not drawn) [HB-8c-PEG12]: the singlet oxygen yield in series [1] amounted to 36%. In series [2], the maximum absorption wavelength came to 628 nm and the molar extinction coefficient is reported as 33,000 M^−1cm^−1.

In series [1], `COc1c(O)c2c(=O)cc(OC)c3c4c(OC)cc(=O)c5c(NCC(=O)O)c(NCC(=O)O)c6c(c(c1C(C(C)=O)C(C)=C6)c23)c54` (stereo not drawn) [HB-7a] gave a singlet oxygen yield of 28%. In series [2], the maximum absorption wavelength was 620 nm and the molar extinction coefficient is recorded as 26,500 M^−1cm^−1.

`COc1c(O)c2c(=O)cc(OC)c3c4c(OC)cc(=O)c5c(NCCCC(=O)O)c(NCCCC(=O)O)c6c(c(c1CC(C)=C6)c23)c54` [HC-8a]: the singlet oxygen yield in series [1] is 26%. Moreover, in series [2], the maximum absorption wavelength is 620 nm and the molar extinction coefficient was 28,500 M^−1cm^−1.

In turn, `COc1c2c3c4c(c(NCCS(=O)(=O)OC)c(=O)c5c(O)cc(OC)c(c6c(OC)cc(NCCS(=O)(=O)OC)c(c1=O)c63)c54)C=C(C)C2C(C)=O` (stereo not drawn) [HB-12d] registered a singlet oxygen yield in series [1] of 21%. Also, in series [2], the maximum absorption wavelength stood at 624 nm and the molar extinction coefficient is given as 21,500 M^−1cm^−1.

Turning to `COCCOCCC(=O)OC1CCC(Nc2c(NC3CCC(OC(=O)CCOCCOC)CC3)c3c(=O)cc(OC)c4c5c(OC)cc(=O)c6c(O)c(OC)c7c(c(c2C=C(C)C7C(C)=O)c34)c65)CC1` (stereo not drawn) [HB-17a-PEG1], the singlet oxygen yield in series [1] was 30%. In addition, in series [2], the maximum absorption wavelength is reported as 622 nm and the molar extinction coefficient is recorded as 30,500 M^−1cm^−1.

Compound `COCCOCCOCCOCCOCCOCCOCCOCCOCCOCCOCCOCCOC(=O)C1CCCC(Nc2c3c4c5c(c(OC)c(=O)c6c(O)cc(OC)c(c7c(OC)cc(NC8CCCC(C(=O)OCCOCCOCCOCCOCCOCCOCCOCCOCCOCCOCCOCCOC)C8)c(c2=O)c74)c65)C(C(C)=O)C(C)=C3)C1` (stereo not drawn) [HB-15c-PEG12] came in with a singlet oxygen yield in series [1] of 35%. In series [2], the maximum absorption wavelength was found to be 630 nm and the molar extinction coefficient is reported as 33,000 M^−1cm^−1.

As to `COc1c2c3c4c(c(NCCC5CCC(O)CC5)c(=O)c5c(O)cc(OC)c(c6c(OC)cc(NCCC7CCC(O)CC7)c(c1=O)c63)c54)C=C(C)C2C(C)=O` (stereo not drawn) [HC-18d], in series [1], the singlet oxygen yield came out at 20%. Moreover, in series [2], the maximum absorption wavelength turned out to be 622 nm and the molar extinction coefficient is 23,500 M^−1cm^−1.

On to `COc1c(NCC[N+]23CC[N+](C)(CC2)CC3)c2c(=O)cc(OC)c3c4c(OC)cc(=O)c5c(O)c(NCC[N+]67CC[N+](C)(CC6)CC7)c6c(c(c1C(C(C)=O)C(C)=C6)c23)c54` (stereo not drawn) [HB-41b], for which the singlet oxygen yield in series [1] stood at 32%. Moreover, in series [2], the maximum absorption wavelength was 624 nm and the molar extinction coefficient is given as 31,500 M^−1cm^−1.

`COCCOCCOCCOCCOCCOCCOC(=O)C1CCCCC1Nc1c2c3c4c(c(OC)c(=O)c5c(NC6CCCCC6C(=O)OCCOCCOCCOCCOCCOCCOC)cc(OC)c(c6c(OC)cc(O)c(c1=O)c63)c54)C(C(C)=O)C(C)=C2` (stereo not drawn) [HB-16d-PEG6] came in with a singlet oxygen yield in series [1] of 33%. Further, in series [2], the maximum absorption wavelength turned out to be 628 nm and the molar extinction coefficient was 32,000 M^−1cm^−1.

Turning to `COc1c2c3c4c(c(NCc5cccc[n+]5C)c(=O)c5c(NCc6cccc[n+]6C)cc(OC)c(c6c(OC)cc(O)c(c1=O)c63)c54)C=C(C)C2C(C)=O` (stereo not drawn) [HB-38c-N^+], the singlet oxygen yield in series [1] turned out to be 21%. Moreover, in series [2], the maximum absorption wavelength is 622 nm and the molar extinction coefficient is 22,500 M^−1cm^−1.

As for `COc1c2c3c4c(c(NCc5ccccn5)c(=O)c5c(O)cc(OC)c(c6c(OC)cc(NCc7ccccn7)c(c1=O)c63)c54)C=C(C)C2C(C)=O` (stereo not drawn) [HB-38d], in series [1], the singlet oxygen yield is reported as 17%. Further, in series [2], the maximum absorption wavelength is reported as 624 nm and the molar extinction coefficient is on record as 18,500 M^−1cm^−1.

As for `COCCOCCNC(=O)CCCNc1c(NCCCC(=O)NCCOCCOC)c2c(=O)cc(OC)c3c4c(OC)cc(=O)c5c(O)c(OC)c6c(c(c1C=C(C)C6)c23)c54` [HC-8a-NH-PEG1], the singlet oxygen yield in series [1] is reported as 30%. Further, in series [2], the maximum absorption wavelength amounted to 621 nm and the molar extinction coefficient is 30,500 M^−1cm^−1.

For `COCCOC(=O)C1(Nc2c(NC3(C(=O)OCCOC)CC3)c3c(=O)cc(OC)c4c5c(OC)cc(=O)c6c(O)c(OC)c7c(c(c2C=C(C)C7)c34)c65)CC1` [HC-35a-PEG1], the singlet oxygen yield in series [1] stood at 32%. Besides, in series [2], the maximum absorption wavelength is listed as 622 nm and the molar extinction coefficient was 31,000 M^−1cm^−1.

With `COCCOC(=O)CCCNc1c(NCCCC(=O)OCCOC)c2c(=O)cc(OC)c3c4c(OC)cc(=O)c5c(O)c(OC)c6c(c(c1C=C(C)C6)c23)c54` [HC-8a-PEG1], the singlet oxygen yield in series [1] came to 28%. Moreover, in series [2], the maximum absorption wavelength turned out to be 621 nm and the molar extinction coefficient is recorded as 30,000 M^−1cm^−1.

Take `COc1c2c3c4c(c(NCCOC(=O)N5CC(=O)NC(=O)C5)c(=O)c5c(NCCOC(=O)N6CC(=O)NC(=O)C6)cc(OC)c(c6c(OC)cc(O)c(c1=O)c63)c54)C=C(C)C2C(C)=O` (stereo not drawn) [HB-40c]: in series [1], the singlet oxygen yield was 40%. For the same compound, in series [2], the maximum absorption wavelength amounted to 632 nm and the molar extinction coefficient is 34,000 M^−1cm^−1.

In series [1], `COc1c2c3c4c(c(NCCCS(=O)(=O)O)c(=O)c5c(NCS(=O)(=O)O)cc(OC)c(c6c(OC)cc(O)c(c1=O)c63)c54)C=C(C)C2` [HC-45c] returned a singlet oxygen yield of 21%. In series [2], the maximum absorption wavelength is on record as 627 nm and the molar extinction coefficient is 22,000 M^−1cm^−1.

Compound `COc1c2c3c4c(c(NC5CCC(O)CC5)c(=O)c5c(O)cc(OC)c(c6c(OC)cc(NC7CCC(O)CC7)c(c1=O)c63)c54)C=C(C)C2C(C)=O` (stereo not drawn) [HB-17d] returned a singlet oxygen yield in series [1] of 22%. For the same compound, in series [2], the maximum absorption wavelength came out at 624 nm and the molar extinction coefficient was 25,000 M^−1cm^−1.

`COc1c(NCCCC(=O)O)c2c(=O)cc(OC)c3c4c(OC)cc(=O)c5c(O)c(NCC(=O)O)c6c(c(c1C(C(C)=O)C(C)=C6)c23)c54` (stereo not drawn) [HB-43b] had a singlet oxygen yield in series [1] of 25%. In series [2], the maximum absorption wavelength is given as 618 nm and the molar extinction coefficient is recorded as 26,000 M^−1cm^−1.

In series [1], `COCCOCCOCCOCCOCCOCCOCCC(=O)OCCOCCNc1c2c3c4c(c(OC)c(=O)c5c(NCCOCCOC(=O)CCOCCOCCOCCOCCOCCOCCOC)cc(OC)c(c6c(OC)cc(O)c(c1=O)c63)c54)CC(C)=C2` [HC-1d-PEG6] gave a singlet oxygen yield of 34%. Further, in series [2], the maximum absorption wavelength is 622 nm and the molar extinction coefficient is listed as 34,500 M^−1cm^−1.

As for `COc1c(O)c2c(=O)cc(OC)c3c4c(OC)cc(=O)c5c(NCCNCCOCCO)c(NCCNCCOCCO)c6c(c(c1C(C(C)=O)C(C)=C6)c23)c54` (stereo not drawn) [HB-5a-PEG1], the singlet oxygen yield in series [1] was 28%. Besides, in series [2], the maximum absorption wavelength is 622 nm and the molar extinction coefficient was 29,500 M^−1cm^−1.
